Data set [1] concerns HL-60. The data set is described as follows: Antiproliferative activity against human HL60 cells after 48 hrs by MTT assay. It counts as functional, cell-based. The following applies: HL-60, 48 h. (Tetrazolium dyes change colour on reduction, which living cells bring about.)
Data set [2] relates to K562. The data set is described as follows: Antiproliferative activity against human K562 cells after 48 hrs by MTT assay. As to conditions: K562, 48 h; call rule not given here. It counts as functional, cell-based.
Data set [3] is described as follows: Induction of NO release from L-cysteine in phosphate buffer at pH 7.4 at 0.4 mM after 3 hrs by Griess assay. It counts as physicochemical. The following applies: pH 7.4, 3 h, 400 µM.
The test system of data set [4] is NB-4. Description: Antiproliferative activity against human NB4 cells after 48 hrs by MTT assay. It counts as functional, cell-based. The following applies: NB-4, 48 h.
In data set [5] the test system is NB-4. Description: Ratio of tamibarotene IC50 to compound IC50 for human NB4 cells. It counts as functional.
In data set [6] the test system is K562. Description: Ratio of tamibarotene IC50 to compound IC50 for human K562 cells. It counts as functional.
In data set [7] the test system is HL-60. Description: Ratio of tamibarotene IC50 to compound IC50 for human HL60 cells. It counts as functional.

The IC50 is the point on the concentration scale where inhibition reaches its midpoint. Low readings indicate higher potency, high ones lower potency. `CC1(C)CCC(C)(C)c2cc(NC(=O)c3ccc(C(=O)OCCOC(=O)c4ccc(OCc5c(-c6ccccc6)no[n+]5[O-])cc4)cc3)ccc21`: the IC50 in the data set with HL-60 [1] is 395 µM; in the data set with K562 [2], greater than 1000 µM; in the data set with NB-4 [4], 119 µM. In data set [3], the outcome was Active.

As to `CC1(C)CCC(C)(C)c2cc(NC(=O)c3ccc(C(=O)NCC(=O)OCc4c(-c5ccccc5)no[n+]4[O-])cc3)ccc21`, the values for the IC50 in the data set on HL-60 [1], with K562 [2] and with NB-4 [4] were 0.16 µM, 7.12 µM and 0.19 µM, respectively. Moreover, the “Ratio IC50” value amounted to 25 with NB-4 [5], 6 in the data set with K562 [6] and 56 in the data set with HL-60 [7]. Moreover, the outcome in data set [3] was Active.

As for `CC1(C)CCC(C)(C)c2cc(NC(=O)c3ccc(C(=O)OCCCOC(=O)c4ccc(OCc5c(-c6ccccc6)no[n+]5[O-])cc4)cc3)ccc21`, the figures for the IC50 in the data set with HL-60 [1], with K562 [2] and in the data set with NB-4 [4] were 185 µM, greater than 1000 µM and 140 µM, respectively. Besides, in data set [3], the outcome was Active.

`CC1(C)CCC(C)(C)c2cc(NC(=O)c3ccc(C(=O)OCCCCCCOC(=O)c4ccc(OCc5c(-c6ccccc6)no[n+]5[O-])cc4)cc3)ccc21`: the IC50 in the data set on HL-60 [1] was 486 µM; in the data set with K562 [2] it was greater than 1000 µM; in the data set with NB-4 [4], greater than 1000 µM. In data set [3], the result was Active.

As for `CC(C)[C@H](NC(=O)c1ccc(C(=O)Nc2ccc3c(c2)C(C)(C)CCC3(C)C)cc1)C(=O)OCc1c(-c2ccccc2)no[n+]1[O-]`, the IC50 with HL-60 [1] amounted to 5.85 µM; in the data set on K562 [2], 192 µM; in the data set on NB-4 [4], 4.39 µM. Also, the outcome in data set [3] was Active.

`CC1(C)CCC(C)(C)c2cc(NC(=O)c3ccc(C(=O)OCCCCCOC(=O)c4ccc(OCc5c(-c6ccccc6)no[n+]5[O-])cc4)cc3)ccc21`: the results for the IC50 in the data set with HL-60 [1], in the data set on K562 [2] and in the data set with NB-4 [4] were 282 µM, greater than 1000 µM and 240 µM, respectively. Also, in data set [3], the outcome was Active.

`CC1(C)CCC(C)(C)c2cc(NC(=O)c3ccc(C(=O)OCCCCOC(=O)c4ccc(OCc5c(-c6ccccc6)no[n+]5[O-])cc4)cc3)ccc21`: the IC50 in the data set on HL-60 [1] is 651 µM; with K562 [2], greater than 1000 µM; in the data set on NB-4 [4], 952 µM. Further, in data set [3], the outcome was Active.

For the compound `CC(C)C[C@H](NC(=O)c1ccc(C(=O)Nc2ccc3c(c2)C(C)(C)CCC3(C)C)cc1)C(=O)OCc1c(-c2ccccc2)no[n+]1[O-]`, the IC50 stood at 0.74 µM in the data set with HL-60 [1], 64 µM with K562 [2] and 0.97 µM with NB-4 [4]. Moreover, in data set [3], the outcome was Active.

As for `CC1(C)CCC(C)(C)c2cc(NC(=O)c3ccc(C(=O)N[C@@H](Cc4ccccc4)C(=O)OCc4c(-c5ccccc5)no[n+]4[O-])cc3)ccc21`, the IC50 with HL-60 [1] was found to be 0.5 µM; in the data set with K562 [2] it was 22.6 µM; in the data set with NB-4 [4] it was 0.75 µM. Also, the result in data set [3] was Active.

As to `C[C@H](NC(=O)c1ccc(C(=O)Nc2ccc3c(c2)C(C)(C)CCC3(C)C)cc1)C(=O)OCc1c(-c2ccccc2)no[n+]1[O-]`, the IC50 with HL-60 [1] is 6.97 µM; in the data set on K562 [2], 60.4 µM; with NB-4 [4], 5.1 µM. Further, the result in data set [3] was Active.

Turning to `CC1(C)CCC(C)(C)c2cc(NC(=O)c3ccc(C(=O)NCCNC(=O)c4ccc(OCc5c(-c6ccccc6)no[n+]5[O-])cc4)cc3)ccc21`, the values for the IC50 in the data set with HL-60 [1], with K562 [2] and with NB-4 [4] were 1.14 µM, 13.3 µM and 1.93 µM, respectively. Besides, in data set [3], the result was Active.

As for `CC1(C)CCC(C)(C)c2cc(NC(=O)c3ccc(C(=O)O)cc3)ccc21` [TAMIBAROTENE], the IC50 came to 8.94 µM with HL-60 [1], 42.4 µM with K562 [2] and 4.81 µM with NB-4 [4].

Regarding `CC1(C)CCC(C)(C)c2cc(NC(=O)c3ccc(C(=O)NCCOC(=O)c4ccc(OCc5c(-c6ccccc6)no[n+]5[O-])cc4)cc3)ccc21`, the IC50 with HL-60 [1] is 12.3 µM; in the data set on K562 [2], greater than 1000 µM; in the data set on NB-4 [4], 10.4 µM. The outcome in data set [3] was Active.

The values above are taken from ChEMBL document CHEMBL1921731, “Novel antileukemic agents derived from tamibarotene and nitric oxide donors” (Bioorg Med Chem Lett, 2011).
